Values quoted from earlier work, collected in paper PMC6525986 (Theranostics, 2019).
pIC50: −log10 of the molar value.

Target: protein arginine methyltransferase 5 (PRMT5) (Homo sapiens, UniProt O14744)
Test: PRMT5 enzymatic inhibition assay
Format: biochemical

Sequence of protein arginine methyltransferase 5 (PRMT5) (O14744 2-637): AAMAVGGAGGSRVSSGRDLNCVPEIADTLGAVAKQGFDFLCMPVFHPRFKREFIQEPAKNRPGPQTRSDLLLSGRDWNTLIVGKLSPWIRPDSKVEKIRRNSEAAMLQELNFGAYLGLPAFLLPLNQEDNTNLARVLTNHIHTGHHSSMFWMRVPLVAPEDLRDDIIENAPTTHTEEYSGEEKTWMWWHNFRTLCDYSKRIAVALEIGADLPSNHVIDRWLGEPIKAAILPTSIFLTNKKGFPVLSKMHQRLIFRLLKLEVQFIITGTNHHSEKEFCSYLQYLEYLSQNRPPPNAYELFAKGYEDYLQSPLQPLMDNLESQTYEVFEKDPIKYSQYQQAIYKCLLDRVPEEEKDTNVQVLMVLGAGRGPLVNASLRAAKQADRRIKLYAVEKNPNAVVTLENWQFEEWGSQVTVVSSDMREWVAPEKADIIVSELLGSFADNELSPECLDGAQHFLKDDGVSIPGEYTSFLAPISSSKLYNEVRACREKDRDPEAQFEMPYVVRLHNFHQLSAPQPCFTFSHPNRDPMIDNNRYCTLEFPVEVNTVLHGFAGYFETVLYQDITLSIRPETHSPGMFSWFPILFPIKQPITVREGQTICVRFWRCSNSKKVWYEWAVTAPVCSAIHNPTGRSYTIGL

pIC50: 7.77
Substance: DW14800 [compound 39]
